# pKd: −log10 of the molar value. Activity calls are given as the source filed them. How the calls were made is not given here.
# Molecular target: Peptidyl-prolyl cis-trans isomerase FKBP1A (Homo sapiens) (UniProt P62942)
# Assay: FKBP12 binders, biophysical, NMR detection (AID 608)
# Conditions: NMR binding, purified FKBP12
# Peptidyl-prolyl cis-trans isomerase FKBP1A (Homo sapiens), sequence (P62942 whole entry, looked up): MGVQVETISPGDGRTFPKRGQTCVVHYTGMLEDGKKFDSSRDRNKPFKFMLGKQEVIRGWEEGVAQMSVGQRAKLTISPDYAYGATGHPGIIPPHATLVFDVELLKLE
Structure (SMILES),Kd,pKd
COC(=O)C[C@@H]1C2(C)C(=O)[C@@H](CC3C2CC[C@]2(C)C3CC(=O)O[C@H]2c2ccoc2)[C@H](OC(C)=O)C1(C)C (stereo not given in full),> 4 mM (inactive),
O=C(NCc1ccc2c(c1)OCO2)c1cccs1,> 4 mM (inactive),
CC(=O)Nc1ccc(-c2ccc3nncn3n2)cc1,> 4 mM (inactive),
N/N=C/c1cccnc1,> 4 mM (inactive),
N#C/C(=C\c1ccc[nH]1)S(=O)(=O)c1ccccc1,> 4 mM (inactive),
CC(=O)NC(C)C12CC3CC(CC(C(=O)O)(C3)C1)C2 (stereo not given),> 4 mM (inactive),
O=C1C2CCCCC2C(=O)N1c1ccc(O)cc1 (stereo not given),> 4 mM (inactive),
C=CCN1CC[C@]23c4c5ccc(O)c4OC2C(=O)CC[C@@]3(O)[C@H]1C5 (stereo not given in full),> 4 mM (inactive),
Oc1ccccc1N=Cc1cccnc1,> 4 mM (inactive),
Nc1ccc(S(=O)(=O)Nc2ccc(F)cc2F)cc1,> 4 mM (inactive),
NC(=O)CC1Nc2cccc3cccc(c23)NC1=O (stereo not given),> 4 mM (inactive),
CCS(=O)(=O)N1CCN(c2ccccc2F)CC1,> 4 mM (inactive),
Cc1ccc(CNc2ccc(O)cc2)cc1,> 4 mM (inactive),
CCc1ccccc1NC(=O)c1ccoc1C,> 4 mM (inactive),
CC1(C)C(=O)CC[C@@]2(C)C1C[C@@H](O)[C@@]1(C)C3=CC(=O)O[C@@H](c4ccoc4)[C@]3(C)CCC21 (stereo not given in full),> 4 mM (inactive),
O=C(O)Cc1n[nH]c(=O)c2ccccc12,> 4 mM (inactive),
NC(=O)C1(S(=O)(=O)c2ccccc2)CC1,> 4 mM (inactive),
O=S(=O)(Nc1ccc2c(c1)oc1ccccc12)N1CCCCC1,> 4 mM (inactive),
CCOC(=O)c1c(C)nc2cc(C)ccn12,> 4 mM (inactive),
O=C(c1ccco1)N1CCN(Cc2cccc(F)c2)CC1,> 4 mM (inactive),
CN(C)C(=O)Oc1ccc(-c2nnco2)cc1,> 4 mM (inactive),
Cc1noc(C)c1C(=O)N1CCN(c2ncccn2)CC1,> 4 mM (inactive),

Structure (SMILES),Kd,pKd
COc1ccc(/C=C2/NC(=S)NC2=O)cc1,> 4 mM (inactive),
O=C(CC1SC(=O)NC1=O)Nc1ccccc1 (stereo not given),> 4 mM (inactive),
Nc1cccc2cccnc12,> 4 mM (inactive),
CC1(C)Oc2ccc(N)cc2O1,> 4 mM (inactive),
O=C(O)C1CC(=O)N(C2Cc3ccccc3C2)C1 (stereo not given),> 4 mM (inactive),
Cc1cc(C(=O)NCc2cccs2)c(C)o1,> 4 mM (inactive),
COc1cc2c(cc1OC)[C@@H]1C(=O)c3ccc(O)c(CC=C(C)C)c3O[C@@H]1CO2,> 4 mM (inactive),
NCc1n[nH]c(=O)c2ccccc12,> 4 mM (inactive),
CC(=O)NC(NC(C)=O)c1ccccc1,> 4 mM (inactive),
CC(=O)Nc1ccc2c(C)cc(=O)[nH]c2c1,> 4 mM (inactive),
CC1SC(=NC(=O)c2ccncc2)NC1=O (stereo not given),> 4 mM (inactive),
COc1ccc2c(c1)C(NC(C)=O)C(=O)N2C (stereo not given),> 4 mM (inactive),
N/C(=N/S(=O)(=O)c1cccs1)c1ccccc1,> 4 mM (inactive),
O=C1NC(=O)C(=Cc2cccs2)C(=O)N1,> 4 mM (inactive),
CCn1c(C)c(C(C)=O)c(N2CCOCC2)nc1=S,> 4 mM (inactive),
CC(=O)Nc1ccn(-c2ccccc2)n1,> 4 mM (inactive),
CC(=O)O[C@@H]1CC2C(C)(C)C(=O)C=C[C@]2(C)C2CC[C@@]3(C)[C@H](c4ccoc4)OC(=O)[C@H]4O[C@]43[C@@]21C (stereo not given in full),> 4 mM (inactive),
COc1cc([C@@H]2c3cc4c(cc3C(OC3O[C@@H]5COC(C)O[C@H]5[C@H](O)[C@H]3O)C3COC(=O)[C@@H]32)OCO4)cc(OC)c1O (stereo not given in full),> 4 mM (inactive),
CCN1CCN(c2ncnc3c2nnn3C)CC1,> 4 mM (inactive),
O=C(O)C1CSC2(CCCCC2)N1 (stereo not given),> 4 mM (inactive),
CCc1cccc(C)c1NC(=O)c1cc(C)oc1C,> 4 mM (inactive),
COC(=O)[C@@H]1OC(=O)C2OC23[C@@]1(C)CCC1[C@@]2(C)CCC(=O)C(C)(C)C2C[C@@H](OC(C)=O)[C@]13C (stereo not given in full),> 4 mM (inactive),

Structure (SMILES),Kd,pKd
Cc1cc(C)nc(/N=C(\N)N2CCc3ccccc32)n1,> 4 mM (inactive),
COc1cc2occc2c2oc(=O)ccc12,> 4 mM (inactive),
COc1cc(/C=C/C(=O)/C=C(O)/C=C/c2ccc(O)c(OC)c2)ccc1O,> 4 mM (inactive),
N#Cc1cccc(Cn2nnc(-c3ccccc3)n2)c1,> 4 mM (inactive),
O=C(C1CCC(C(=O)N2CCCC2)CC1)N1CCCC1 (stereo not given),> 4 mM (inactive),
Cc1cc(C(=O)NCc2cccnc2)cs1,> 4 mM (inactive),
C[C@H]1O[C@@H](O[C@H]2[C@@H](O)C[C@H](O[C@H]3[C@@H](O)C[C@H](O[C@H]4CC[C@]5(C)C6C[C@@H](O)[C@]7(C)[C@@H](C8=CC(=O)OC8)CC[C@]7(O)C6CC[C@@H]5C4)O[C@@H]3C)O[C@@H]2C)C[C@H](O)[C@@H]1O (stereo not given in full),> 4 mM (inactive),
COc1ccc(C)cc1-n1c(-c2ccncc2)n[nH]c1=S,> 4 mM (inactive),
Cc1n[nH]c(=S)n(/N=C/c2ccccc2)c1=O,> 4 mM (inactive),
CCOC(=O)c1c(C)cc(O)c(C=O)c1O,> 4 mM (inactive),
O=C(Nn1c(=S)[nH]c2ccccc2c1=O)c1ccncc1,> 4 mM (inactive),
Cc1ccc(N2C(=O)CC(=O)NC2=O)cc1,> 4 mM (inactive),
CC1(C)C(=O)C=C[C@@]2(C)C1C[C@@H](O)[C@]1(C)C2CC[C@@]2(C)[C@H](c3ccoc3)OC(=O)[C@H]3O[C@]321 (stereo not given in full),> 4 mM (inactive),
CC1(C)CC(=O)c2cnn(-c3nc4ccccc4[nH]3)c2C1,,3.31
Cc1nn(C)c(N2CCOCC2)c1N,> 4 mM (inactive),
Cc1nc2ccc(NC(=O)N3CCOCC3)cc2s1,> 4 mM (inactive),
OCc1cccc2c1OCO2,> 4 mM (inactive),
Cc1nnc(SCc2ccccc2)[nH]c1=O,> 4 mM (inactive),
O=C1c2ccccc2C(=O)N1/N=C/c1ccc[nH]1,> 4 mM (inactive),
Cc1nnc(SCc2ccon2)n1-c1ccccc1,,4.41
O=C(Nc1ccc(N2CCOCC2)cc1)C1CC1,> 4 mM (inactive),
c1ccc2c(c1)[nH]c1cnccc12,> 4 mM (inactive),

Structure (SMILES),Kd,pKd
Cc1nnc(NCCO)[nH]c1=O,> 4 mM (inactive),
CC1CCN(S(=O)(=O)N(C)C)CC1,> 4 mM (inactive),
Cc1ccc(/C=N/n2c(C)nnc2C)cc1,> 4 mM (inactive),
CC(=O)N=c1cccc(NC(C)=O)n1O,> 4 mM (inactive),
CN1CCN(C(=O)/C=C\C(=O)O)CC1,> 4 mM (inactive),
Cc1cc(Cl)ccc1NC(=O)C(N)=O,> 4 mM (inactive),
CC(=O)c1cnc(Nc2nc(C)c3ccccc3n2)nc1C,> 4 mM (inactive),
NC1=NC(=O)C(Cc2ccccc2)S1 (stereo not given),> 4 mM (inactive),
S=C1NC(=S)NC(c2ccc3c(c2)OCO3)N1,> 4 mM (inactive),
CN(C)c1nc(N2CCOCC2)nc(N2CCOCC2)n1,> 4 mM (inactive),
COc1c2occc2c(OC)c2c(=O)cc(C)oc12,> 4 mM (inactive),
Cc1nnc(NCc2cccnc2)[nH]c1=O,> 4 mM (inactive),
O=C(c1sc2cc(Cl)cc(Cl)c2c1Cl)N1CCOCC1,inactive,
CCc1c(C(=O)N2CCOCC2)csc1C,> 4 mM (inactive),
COCC(=O)Nc1c(C(N)=O)oc2ccccc12,> 4 mM (inactive),
CNC(=O)c1c(O)c2ccccc2[nH]c1=O,> 4 mM (inactive),
C/C1=C/CC(C)(C)/C=C/C/C(C)=C/CC1,> 4 mM (inactive),
CC1(C)CC2C1CCC1(C)OC2(C)CCC1O (stereo not given),> 4 mM (inactive),
O=C1Nc2ccccc2C1(O)Cc1ccncc1 (stereo not given),> 4 mM (inactive),
COc1ccc(/C=C2/C(=O)N=C(N)N2C)cc1OC,> 4 mM (inactive),
NCc1ccc2sccc2c1,> 4 mM (inactive),
COc1nc(-c2ccccc2)ccc1-c1noc(C)n1,> 4 mM (inactive),

Structure (SMILES),Kd,pKd
CC(=O)Oc1c(-c2ccccc2)oc2c(CC=C(C)C)c3c(c(OC(C)=O)c2c1=O)C=CC(C)(C)O3,> 4 mM (inactive),
COc1cc(-c2csc(C)n2)ccc1O,> 4 mM (inactive),
Cc1ccn(S(=O)(=O)c2ccc(F)cc2)n1,> 4 mM (inactive),
COc1ccccc1/C=C/CN1CCOCC1,> 4 mM (inactive),
COc1ccc(-c2cc(=O)c3c(O)cc(O)c(-c4cc(-c5cc(=O)c6c(O)cc(O)cc6o5)ccc4OC)c3o2)cc1,> 4 mM (inactive),
C=C1C2=CC(=O)O[C@@H](c3ccoc3)[C@]2(C)CCC1[C@@]1(C)C=CC(=O)C(C)(C)[C@@H]1CC(=O)OC (stereo not given in full),> 4 mM (inactive),
NC(=O)C1CCN(C(=O)c2ccco2)CC1,> 4 mM (inactive),
COC(=O)c1c[nH]c2ccccc12,> 4 mM (inactive),
NC(=O)CSc1nnc(-c2ccncc2)o1,> 4 mM (inactive),
Cc1cc(C)c(C#N)c(N2CCCC2)n1,> 4 mM (inactive),
CS(=O)(=O)N1CCN(c2ncccn2)CC1,> 4 mM (inactive),
O=C1CNCc2[nH]c3ccccc3c2N1c1ccccc1,> 4 mM (inactive),
C=C1C2CC[C@@]3(C)[C@H](c4ccoc4)OC(=O)C[C@]13O[C@H]1CC(O)C(C)(C)C(CC(=O)OC)[C@@]21C (stereo not given in full),> 4 mM (inactive),
CC(=O)c1ccc[nH]1,> 4 mM (inactive),
CCCc1cc2c(c(NC(C)=O)n1)c(=O)oc1ccccc12,> 4 mM (inactive),
O=C(Nc1ccccc1)Nc1ccccc1,> 4 mM (inactive),
Cc1cc(C)cc(NS(=O)(=O)N2CCOCC2)c1,inactive,
COc1ccc(-c2cc(=O)c3c(O)c(OC)c(O[C@H]4O[C@H](CO[C@@H]5O[C@@H](C)[C@H](O)[C@@H](O)[C@H]5O)[C@@H](O)[C@H](O)[C@H]4O)cc3o2)cc1,> 4 mM (inactive),
O=C(O)C1CN(Cc2ccccc2)CCO1 (stereo not given),> 4 mM (inactive),
CC(=O)Nc1ccc(NC(=O)C2CC2)cc1,> 4 mM (inactive),
COC(=O)C[C@H]1C(C)(C)C(=O)[C@@H]2CC3=C(CC[C@]4(C)C3=CC(=O)O[C@H]4c3ccoc3)C1(C)C2=O,> 4 mM (inactive),
COc1nc(C)ccc1-c1noc(-c2ccncc2)n1,> 4 mM (inactive),
